Laboratory results: ChEMBL document CHEMBL6114988, “Design, synthesis and biological evaluation of dual CDK9/PARP inhibitors for the treatment of cancer” (Eur J Med Chem, 2025)

Tests used:
[1] = target: Poly [ADP-ribose] polymerase 1 (Homo sapiens, UniProt P09874); test: Inhibition of PARP1 (unknown origin) incubated for 1 hr by ELISA
[2] = target: Cyclin-dependent kinase 9 (Homo sapiens, UniProt P50750)
Description: Inhibition of CDK9 (unknown origin) using lipid substrate incubated for 40 mins in presence of ATP by kinase-Glo plus luminescence assay

[3] = system: MDA-MB-231; test: Induction of apoptosis in human MDA-MB-231 cells assessed as necrotic cell at 10 uM incubated for 24 hrs by Annexin V-FITC/PI staining based analysis (reference value: 0.10 %); type: functional
[4] = system: MDA-MB-231; test: Induction of apoptosis in human MDA-MB-231 cells assessed as early apoptotic cell at 1 uM incubated for 24 hrs by Annexin V-FITC/PI staining based analysis (reference value: 0.96 %); type: functional
[5] = system: MDA-MB-231; test: Induction of cell cycle arrest in human MDA-MB-231 cells assessed as accumulation of cells at G1 phase at 0.2 uM incubated for 24 hrs by PI staining based flow cytometric analysis (reference value: 58.1%); type: functional
[6] = system: MDA-MB-231; test: Induction of apoptosis in human MDA-MB-231 cells assessed as viable cell at 0.2 uM incubated for 24 hrs by Annexin V-FITC/PI staining based analysis (reference value: 96.3 %); type: functional
[7] = system: MDA-MB-231; test: Induction of cell cycle arrest in human MDA-MB-231 cells assessed as accumulation of cells at G2/M phase at 10 uM incubated for 24 hrs by PI staining based flow cytometric analysis (reference value: 11.3%); type: functional
[8] = system: MDA-MB-231; test: Induction of apoptosis in human MDA-MB-231 cells assessed as early apoptotic cell at 10 uM incubated for 24 hrs by Annexin V-FITC/PI staining based analysis (reference value: 0.96 %); type: functional
[9] = system: MDA-MB-231; test: cells; conditions: Homo sapiens, MDA-MB-231, 48 h
Description: Antiproliferative activity against human MDA-MB-231 cells assessed as inhibition of cell proliferation incubated for 48 hrs by CCK-8 assay

[10] = system: MDA-MB-231; test: Induction of cell cycle arrest in human MDA-MB-231 cells assessed as accumulation of cells at S phase at 0.2 uM incubated for 24 hrs by PI staining based flow cytometric analysis (reference value: 29.2%); type: functional
[11] = system: HeLa; test: cells; conditions: Homo sapiens, 48 h
Description: Antiproliferative activity against human HeLa cells assessed as inhibition of cell proliferation incubated for 48 hrs by CCK-8 assay

[12] = system: MDA-MB-231; test: Induction of apoptosis in human MDA-MB-231 cells assessed as viable cell at 1 uM incubated for 24 hrs by Annexin V-FITC/PI staining based analysis (reference value: 96.3 %); type: functional
[13] = system: MDA-MB-231; test: Induction of cell cycle arrest in human MDA-MB-231 cells assessed as accumulation of cells at G2/M phase at 1 uM incubated for 24 hrs by PI staining based flow cytometric analysis (reference value: 11.3%); type: functional
[14] = Metabolic stability in artificial gastric fluid assessed as parent compound remaining at 1 mg/ml incubated for 8 hrs by HPLC analysis; type: ADME; conditions: read-out: Stability
[15] = system: MDA-MB-231; test: Induction of cell cycle arrest in human MDA-MB-231 cells assessed as accumulation of cells at G1 phase at 1 uM incubated for 24 hrs by PI staining based flow cytometric analysis (reference value: 58.1%); type: functional
[16] = system: MDA-MB-231; test: Induction of apoptosis in human MDA-MB-231 cells assessed as viable cell at 10 uM incubated for 24 hrs by Annexin V-FITC/PI staining based analysis (reference value: 96.3 %); type: functional
[17] = system: MCF7; test: cells; conditions: Homo sapiens, MCF7, 48 h
Description: Antiproliferative activity against human MCF7 cells assessed as inhibition of cell proliferation incubated for 48 hrs by CCK-8 assay

[18] = system: MOLM-13; test: Antiproliferative activity against human MOLM-13 cells assessed as inhibition of cell proliferation incubated for 48 hrs by CCK-8 assay; type: functional, cell-based; conditions: MOLM-13, 48 h
[19] = system: MDA-MB-231; test: Induction of apoptosis in human MDA-MB-231 cells assessed as necrotic cell at 1 uM incubated for 24 hrs by Annexin V-FITC/PI staining based analysis (reference value: 0.10 %); type: functional
[20] = system: MDA-MB-231; test: Induction of cell cycle arrest in human MDA-MB-231 cells assessed as accumulation of cells at G2/M phase at 0.2 uM incubated for 24 hrs by PI staining based flow cytometric analysis (reference value: 11.3%); type: functional
[21] = system: MDA-MB-231; test: Induction of cell cycle arrest in human MDA-MB-231 cells assessed as accumulation of cells at S phase at 1 uM incubated for 24 hrs by PI staining based flow cytometric analysis (reference value: 29.2%); type: functional
[22] = system: MDA-MB-231; test: Induction of cell cycle arrest in human MDA-MB-231 cells assessed as accumulation of cells at S phase at 10 uM incubated for 24 hrs by PI staining based flow cytometric analysis (reference value: 29.2%); type: functional
[23] = Metabolic stability in plasma assessed as parent compound remaining incubated for 3 hrs by HPLC analysis; type: ADME, cell-free; conditions: read-out: Stability
[24] = system: MDA-MB-231; test: Induction of apoptosis in human MDA-MB-231 cells assessed as late apoptotic cell at 0.2 uM incubated for 24 hrs by Annexin V-FITC/PI staining based analysis (reference value: 2.61 %); type: functional
[25] = system: MV4-11; test: Antiproliferative activity against human MV4-11 cells assessed as inhibition of cell proliferation incubated for 48 hrs by CCK-8 assay; type: functional, cell-based; conditions: MV4-11, 48 h
[26] = system: HCT-116; test: cells; conditions: Homo sapiens, HCT-116, 48 h
Description: Antiproliferative activity against human HCT-116 cells assessed as inhibition of cell proliferation incubated for 48 hrs by CCK-8 assay

[27] = Metabolic stability in artificial intestinal fluid assessed as parent compound remaining at 1 mg/ml incubated for 8 hrs by HPLC analysis; type: ADME; conditions: read-out: Stability
[28] = system: MDA-MB-231; test: Induction of cell cycle arrest in human MDA-MB-231 cells assessed as accumulation of cells at G1 phase at 10 uM incubated for 24 hrs by PI staining based flow cytometric analysis (reference value: 58.1%); type: functional
[29] = system: MDA-MB-231; test: Induction of apoptosis in human MDA-MB-231 cells assessed as late apoptotic cell at 1 uM incubated for 24 hrs by Annexin V-FITC/PI staining based analysis (reference value: 2.61 %); type: functional
[30] = Metabolic stability in rat liver microsomes assessed as half life at 1 mg/ml incubated for 60 min in presence of NADPH by HPLC analysis; type: ADME, Microsome
[31] = system: MDA-MB-231; test: Induction of apoptosis in human MDA-MB-231 cells assessed as necrotic cell at 0.2 uM incubated for 24 hrs by Annexin V-FITC/PI staining based analysis (reference value: 0.10 %); type: functional
[32] = system: MDA-MB-231; test: Induction of apoptosis in human MDA-MB-231 cells assessed as late apoptotic cell at 10 uM incubated for 24 hrs by Annexin V-FITC/PI staining based analysis (reference value: 2.61 %); type: functional
[33] = system: MDA-MB-231; test: Induction of apoptosis in human MDA-MB-231 cells assessed as early apoptotic cell at 0.2 uM incubated for 24 hrs by Annexin V-FITC/PI staining based analysis (reference value: 0.96 %); type: functional
[34] = system: MDA-MB-231; test: Induction of apoptosis in human MDA-MB-231 cells assessed as early apoptotic cell at 2 uM incubated for 24 hrs by Annexin V-FITC/PI staining based analysis (reference value: 0.96 %); type: functional
[35] = system: MDA-MB-231; test: Induction of apoptosis in human MDA-MB-231 cells assessed as necrotic cell at 2 uM incubated for 24 hrs by Annexin V-FITC/PI staining based analysis (reference value: 0.10 %); type: functional
[36] = system: MDA-MB-231; test: Induction of cell cycle arrest in human MDA-MB-231 cells assessed as accumulation of cells at S phase at 2 uM incubated for 24 hrs by PI staining based flow cytometric analysis (reference value: 29.2%); type: functional
[37] = system: MDA-MB-231; test: Induction of apoptosis in human MDA-MB-231 cells assessed as late apoptotic cell at 2 uM incubated for 24 hrs by Annexin V-FITC/PI staining based analysis (reference value: 2.61 %); type: functional
[38] = system: MDA-MB-231; test: Induction of cell cycle arrest in human MDA-MB-231 cells assessed as accumulation of cells at G1 phase at 2 uM incubated for 24 hrs by PI staining based flow cytometric analysis (reference value: 58.1%); type: functional
[39] = system: MDA-MB-231; test: Induction of cell cycle arrest in human MDA-MB-231 cells assessed as accumulation of cells at G2/M phase at 2 uM incubated for 24 hrs by PI staining based flow cytometric analysis (reference value: 11.3%); type: functional
[40] = system: MDA-MB-231; test: Induction of apoptosis in human MDA-MB-231 cells assessed as viable cell at 2 uM incubated for 24 hrs by Annexin V-FITC/PI staining based analysis (reference value: 96.3 %); type: functional

Poly [ADP-ribose] polymerase 1, sequence (P09874 whole entry): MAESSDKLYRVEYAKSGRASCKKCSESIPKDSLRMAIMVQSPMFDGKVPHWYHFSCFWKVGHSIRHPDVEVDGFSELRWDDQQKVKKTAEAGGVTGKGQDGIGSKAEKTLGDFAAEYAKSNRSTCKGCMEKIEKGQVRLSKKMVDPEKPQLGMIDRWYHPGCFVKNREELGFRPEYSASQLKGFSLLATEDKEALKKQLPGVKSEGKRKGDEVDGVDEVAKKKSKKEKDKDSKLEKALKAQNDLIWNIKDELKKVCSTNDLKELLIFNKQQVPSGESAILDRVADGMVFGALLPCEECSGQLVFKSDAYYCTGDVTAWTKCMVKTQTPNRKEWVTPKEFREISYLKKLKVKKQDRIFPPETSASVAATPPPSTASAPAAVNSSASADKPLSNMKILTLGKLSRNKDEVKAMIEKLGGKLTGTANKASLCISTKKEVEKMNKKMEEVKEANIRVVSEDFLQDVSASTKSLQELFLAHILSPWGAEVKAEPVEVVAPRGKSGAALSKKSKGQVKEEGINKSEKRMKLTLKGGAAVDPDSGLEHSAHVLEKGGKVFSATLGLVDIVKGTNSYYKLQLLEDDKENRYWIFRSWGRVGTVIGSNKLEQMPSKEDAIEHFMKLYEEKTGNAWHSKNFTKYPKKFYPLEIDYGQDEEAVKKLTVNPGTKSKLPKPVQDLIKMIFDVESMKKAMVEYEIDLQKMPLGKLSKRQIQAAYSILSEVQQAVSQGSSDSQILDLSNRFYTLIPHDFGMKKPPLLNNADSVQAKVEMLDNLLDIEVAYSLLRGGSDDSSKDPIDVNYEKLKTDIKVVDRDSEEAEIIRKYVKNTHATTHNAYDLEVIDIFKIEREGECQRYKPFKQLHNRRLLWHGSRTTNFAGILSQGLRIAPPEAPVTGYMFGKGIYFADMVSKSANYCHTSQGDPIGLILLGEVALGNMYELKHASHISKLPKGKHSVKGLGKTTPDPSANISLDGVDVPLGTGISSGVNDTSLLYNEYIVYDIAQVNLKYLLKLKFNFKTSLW
Cyclin-dependent kinase 9, sequence (P50750 whole entry): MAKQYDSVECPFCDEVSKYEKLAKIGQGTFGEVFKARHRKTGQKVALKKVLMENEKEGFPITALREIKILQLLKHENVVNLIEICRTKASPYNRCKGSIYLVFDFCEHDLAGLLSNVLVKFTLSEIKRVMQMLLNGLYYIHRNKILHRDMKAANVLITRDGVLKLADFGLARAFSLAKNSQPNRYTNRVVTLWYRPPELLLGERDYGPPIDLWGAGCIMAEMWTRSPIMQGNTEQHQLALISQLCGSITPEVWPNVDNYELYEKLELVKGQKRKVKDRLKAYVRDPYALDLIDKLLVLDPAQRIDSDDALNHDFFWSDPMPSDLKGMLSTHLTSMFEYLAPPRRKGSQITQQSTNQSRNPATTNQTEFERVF

Structure (SMILES): COc1ccc(-c2cc(Nc3cc(CN4CCN(C(=O)c5cc(Cc6n[nH]c(=O)c7ccccc67)ccc5F)CC4)ccn3)ncc2F)c(OC)c1
- IC50 [1]: 30 nM
- IC50 [2]: 31 nM

Structure (SMILES): O=C(c1cc(Cc2n[nH]c(=O)c3ccccc23)ccc1F)N1CCN(Cc2ccnc(Nc3cc(-c4ccc(F)c5ccoc45)c(F)cn3)c2)CC1
- IC50 [1]: 118 nM
- IC50 [2]: 54 nM

Structure (SMILES): CCOc1cc(F)ccc1-c1cc(Nc2cc(CN3CCN(C(=O)c4cc(Cc5n[nH]c(=O)c6ccccc56)ccc4F)CC3)ccn2)ncn1
- Activity [3]: 1.07%
- Activity [4]: 7.87%
- IC50 [1]: 6 nM
- Activity [5]: 33.1%
- Activity [6]: 94.9%
- Activity [7]: 29.1%
- Activity [8]: 14.8%
- IC50 [9]: 440 nM
- Activity [10]: 40%
- IC50 [11]: 250 nM
- Activity [12]: 82.8%
- Activity [13]: 36.4%
- remaining at 8 h, 1 mg/ml [14]: 94.1%
- Activity [15]: 34.8%
- Activity [16]: 76.1%
- IC50 [17]: 670 nM
- IC50 [18]: 690 nM
- Activity [19]: 1.78%
- Activity [20]: 27.9%
- Activity [21]: 31.1%
- Activity [22]: 45.2%
- remaining at 3 h [23]: 94.6%
- Activity [24]: 2.67%
- IC50 [25]: 3830 nM
- IC50 [26]: 130 nM
- remaining at 8 h, 1 mg/ml [27]: 96.7%
- Activity [28]: 25.3%
- Activity [29]: 7.54%
- half-life at 1 mg/ml [30]: 2.44 h
- IC50 [2]: 15 nM
- Activity [31]: 0.81%
- Activity [32]: 8.01%
- Activity [33]: 1.64%

Structure (SMILES): CCOc1cc(F)ccc1-c1cc(Nc2cc(CN3CCN(C(=O)c4cc(Cc5n[nH]c(=O)c6ccccc56)ccc4F)CC3)ccn2)ncc1F
- IC50 [1]: 32 nM
- IC50 [2]: 59 nM

Structure (SMILES): COc1cccc(F)c1-c1cc(Nc2cc(CN3CCN(C(=O)c4cc(Cc5n[nH]c(=O)c6ccccc56)ccc4F)CC3)ccn2)ncc1F
- IC50 [1]: 16 nM
- IC50 [2]: 61 nM

Structure (SMILES): O=C(c1cc(Cc2n[nH]c(=O)c3ccccc23)ccc1F)N1CCN(C(=O)C2CC2)CC1 [OLAPARIB]
- Activity [34]: 0.59%
- Activity [35]: 0.48%
- IC50 [9]: > 50000 nM
- remaining at 8 h, 1 mg/ml [14]: 99.4%
- Activity [36]: 35.8%
- IC50 [17]: 195000 nM
- Activity [37]: 2.13%
- IC50 [18]: 43100 nM
- Activity [38]: 48.7%
- remaining at 3 h [23]: 99.4%
- Activity [39]: 14.1%
- IC50 [25]: 15200 nM
- IC50 [26]: 200000 nM
- Activity [40]: 96.8%
- remaining at 8 h, 1 mg/ml [27]: 100%
- half-life at 1 mg/ml [30]: 1.86 h

Structure (SMILES): COc1cc(F)ccc1-c1cc(Nc2cc(CS(C)(=N)=O)ccn2)ncc1F (centres undefined) [ENITOCICLIB]
- Activity [4]: 6.48%
- IC50 [9]: 270 nM
- IC50 [11]: 200 nM
- Activity [12]: 82.1%
- Activity [13]: 16.5%
- remaining at 8 h, 1 mg/ml [14]: 101%
- Activity [15]: 54.9%
- IC50 [17]: 50 nM
- IC50 [18]: 80 nM
- Activity [19]: 3.8%
- Activity [21]: 29.1%
- remaining at 3 h [23]: 96%
- IC50 [25]: 110 nM
- IC50 [26]: 180 nM
- remaining at 8 h, 1 mg/ml [27]: 97.4%
- Activity [29]: 7.66%
- half-life at 1 mg/ml [30]: 5.78 h
